Test results published in the NIST ThermoML archive (doi:10.1016/j.jct.2015.05.014).
Numbers after ± are expanded uncertainties.

Assay: activity coefficient (dimensionless); of the first substance listed, at infinite dilution; xn = mol fraction of the nth substance listed
Conditions: 100 kPa, Liquid, Chromatography, x1 = 0

activity coefficient (318.15 K)	activity coefficient (328.15 K)	activity coefficient (338.15 K)	activity coefficient (348.15 K)	activity coefficient (358.15 K)	activity coefficient (368.15 K)	activity coefficient (378.15 K)	activity coefficient (388.15 K)	activity coefficient (398.15 K)	activity coefficient (408.15 K)	activity coefficient (308.15 K)	Compound
				0.335 ± 0.036	0.361 ± 0.038	0.388 ± 0.039	0.421 ± 0.041	0.453 ± 0.043	0.486 ± 0.045		CCCCO [butan-1-ol] + CC(O)C(=O)[O-].CC[N+]1(C)CCCC1
1.29 ± 0.11	1.38 ± 0.12	1.47 ± 0.12	1.56 ± 0.13	1.64 ± 0.14	1.75 ± 0.15						c1ccsc1 [thiophene] + CC(O)C(=O)[O-].CC[N+]1(C)CCCC1
53.6 ± 4.6	52 ± 4.5	50.1 ± 4.3	48.6 ± 4.2	47.2 ± 4.1	45.9 ± 4					55.3 ± 4.8	CC(C)OC(C)C [diisopropyl ether] + CC(O)C(=O)[O-].CC[N+]1(C)CCCC1
474 ± 41	423 ± 37	389 ± 34	358 ± 31	326 ± 28	297 ± 26					518 ± 45	CCCCCCCCC [nonane] + CC(O)C(=O)[O-].CC[N+]1(C)CCCC1
8.83 ± 0.76	9.25 ± 0.8	9.82 ± 0.85	10.3 ± 0.9	10.7 ± 0.9	11.2 ± 1					8.33 ± 0.72	C#CCCCCC [1-heptyne] + CC(O)C(=O)[O-].CC[N+]1(C)CCCC1
45.2 ± 3.9	43.9 ± 3.8	42.5 ± 3.7	41.6 ± 3.6	40.7 ± 3.5	39.7 ± 3.4					46.2 ± 4	CCOC(C)(C)C [2-ethoxy-2-methylpropane] + CC(O)C(=O)[O-].CC[N+]1(C)CCCC1
5.48 ± 0.47	5.79 ± 0.5	6.21 ± 0.54	6.54 ± 0.56	6.92 ± 0.6	7.24 ± 0.62					5.14 ± 0.44	C#CCCCC [1-hexyne] + CC(O)C(=O)[O-].CC[N+]1(C)CCCC1
242 ± 21	220 ± 19	201 ± 17	187 ± 16	173 ± 15	161 ± 14					270 ± 23	CC(C)CC(C)(C)C [2,2,4-trimethylpentane] + CC(O)C(=O)[O-].CC[N+]1(C)CCCC1
4.84 ± 0.42	4.93 ± 0.43	5.05 ± 0.44	5.14 ± 0.44	5.22 ± 0.45	5.35 ± 0.46						CCC(=O)CC [pentan-3-one] + CC(O)C(=O)[O-].CC[N+]1(C)CCCC1
7.09 ± 0.61	7.16 ± 0.62	7.22 ± 0.62	7.31 ± 0.63	7.39 ± 0.64	7.54 ± 0.65						CCCCC(C)=O [2-hexanone] + CC(O)C(=O)[O-].CC[N+]1(C)CCCC1
14.2 ± 1.2	14.7 ± 1.3	15.5 ± 1.3	16 ± 1.4	16.6 ± 1.4	17.1 ± 1.5					13.6 ± 1.2	C#CCCCCCC [1-octyne] + CC(O)C(=O)[O-].CC[N+]1(C)CCCC1
326 ± 28	302 ± 26	284 ± 25	268 ± 23	252 ± 22	238 ± 21					349 ± 30	C=CCCCCCCCC [1-decene] + CC(O)C(=O)[O-].CC[N+]1(C)CCCC1
21.7 ± 1.9	20.7 ± 1.8	20.2 ± 1.7	19.7 ± 1.7	19.5 ± 1.7	18.9 ± 1.6					22.4 ± 1.9	C1=CCCCC1 [cyclohexene] + CC(O)C(=O)[O-].CC[N+]1(C)CCCC1
				0.086 ± 0.03	0.095 ± 0.03	0.105 ± 0.03	0.116 ± 0.03	0.125 ± 0.03	0.137 ± 0.029		CO [methanol] + CC(O)C(=O)[O-].CC[N+]1(C)CCCC1
2.25 ± 0.19	2.33 ± 0.2	2.4 ± 0.21	2.48 ± 0.21	2.55 ± 0.22	2.65 ± 0.23						C1COCCO1 [1,4-dioxane] + CC(O)C(=O)[O-].CC[N+]1(C)CCCC1
0.773 ± 0.065	0.808 ± 0.068	0.844 ± 0.07	0.88 ± 0.07	0.915 ± 0.076	0.962 ± 0.079						CC#N [acetonitrile] + CC(O)C(=O)[O-].CC[N+]1(C)CCCC1

Compound	activity coefficient (318.15 K)	activity coefficient (328.15 K)	activity coefficient (338.15 K)	activity coefficient (348.15 K)	activity coefficient (358.15 K)	activity coefficient (368.15 K)	activity coefficient (378.15 K)	activity coefficient (388.15 K)	activity coefficient (398.15 K)	activity coefficient (408.15 K)	activity coefficient (308.15 K)
c1ccncc1 [pyridine] + CC(O)C(=O)[O-].CC[N+]1(C)CCCC1	1.26 ± 0.11	1.3 ± 0.11	1.36 ± 0.11	1.41 ± 0.12	1.46 ± 0.12	1.53 ± 0.13					
Cc1cccc(C)c1 [1,3-dimethylbenzene] + CC(O)C(=O)[O-].CC[N+]1(C)CCCC1	10.1 ± 0.9	10.2 ± 0.9	10.4 ± 0.9	10.4 ± 0.9	10.5 ± 0.9	10.7 ± 0.9					
Cc1ccccc1 [toluene] + CC(O)C(=O)[O-].CC[N+]1(C)CCCC1	5.36 ± 0.46	5.5 ± 0.47	5.62 ± 0.48	5.76 ± 0.5	5.89 ± 0.51	6.06 ± 0.52					
CCOCC [diethyl ether] + CC(O)C(=O)[O-].CC[N+]1(C)CCCC1	15.6 ± 1.3	15.5 ± 1.3	15.1 ± 1.3	15 ± 1.3	15.1 ± 1.3	14.9 ± 1.3					15.8 ± 1.4
